Reference: patent US10969380B2, “Simultaneous detection of cannibalism and senescence as prognostic marker for cancer” (Institut Gustave-Roussy, priority 2012, dated 2021)

How the values were obtained:
[1] = system: human primary keratinocytes (HEKn); test: SA-β-Gal senescence assay in human primary keratinocytes; format: cell-based; conditions: HEKn after fifth passage; 20 μM Kaempferol, 24 hours
Description: FIG. 12. Identification of entescence as a non-cell autonomous senescence. (A) Effects of P2Y2 inhibition on SA-β Gal activity of human primary keratinocytes. After the fifth passages, human primary keratinocytes were cultured during 24 hours in presence or in absence of 20 μM of P2Y2 inhibitor Kaempferol. The number of SA-β Gal positive single or cannibal cells per total number of cells examined (at least 300 per well) was recorded and frequencies of SA-β Gal positive were determined. Error bars represent means±SEM (n=3; *p <0.01). (B) Effects of P2Y2 inhibition on SA-β Gal activity detected after g-irradiation or mithoxantron treatment. […] Then as described above frequencies of SA-β Gal positive were determined (means±SEM; n=3; *p <0.01). […] As previously described, the number of SA-β Gal positive single or cannibal cells per total number of cells examined (at least 300 per well) was recorded (means±SEM; n=3; *p <0.01). […] P21WAF1 expression was also analyzed using antibody against p21^WAF1 (green). […] (F-H) Effects of P2Y2 depletion on DNA damage foci formation, p21^WAF1 expression and SA-β Gal activity detected after Δ133p53. After P2Y2 depletion, the percentage of Δ133p53 depleted cells showing positivity for γ-I-H2AX^+ or p21^WAF1 expression were determined by confocal microscopy (G,H) and analyzed for p Gal activity (Means±SEM; n=3; *P <0.01). […]

HCT116 cells = test: SA-β-Gal senescence assay in HCT116 cells; format: cell-based, human; conditions: 20 μM Kaempferol, 24 hours
Description: FIG. 4. Cellular cannibalism leads to senescence. (A,B) Effects of cellular cannibalism on cell proliferation. After cell sorting, cell proliferation of TP53 or Δ133TP53 knocked down and TP53 knocked out single or cannibal cells were performed during 6 days. (C-H) Effects of cellular cannibalism on senescence induction. Cannibal cells mediated by TP53 knockout or Δ133TP53 knockdown were examined in EdU incorporation assay (C,D), in DNA damage response (E,F) and in SA-β-Gal assay (G,H). (C) Determination of EdU incorporation on cannibal cells induced by Δ133TP53 knockdown, or TP53 knockout. […] The number of EdU positive single or cannibal cells per total number of cells examined (at least 300 per well) was recorded. […] (F) Quantification of DNA damage foci in single and cannibal cells after TP53 or Δ133TP53 inactivation. The percentage of γ-H2AX^+ cells or p53BP1^+ cells were determined by confocal microscopy. […] (I) p21^WAF1 expression during coculture of Tp53^+/+ or TP53^−/− cells, P21^WAF1 expression was determined by immunoblot. […] (K) Quantification of p21^WAF1 expression in single and cannibal cells after TP53 or Δ133TP53 inactivation. The percentage of […]21WAF^+ cells in cannibal cells was determined by confocal microscopy. […] P21^WAF1 expression was determined by immunoblot. […] Quantification of SA-β Gal positive cells were realized as described above (n=3; means±SEM; *P <0.01). […]

Q: How did the “senescence (frequency of senescent, SA-β-Gal-positive cannibal cells) during replicative stress” value [1] turn out when O=c1c(O)c(-c2ccc(O)cc2)oc2cc(O)cc(O)c12 [kaempferol] was run?
A: The value was “strongly reduced senescence”.

Q: What about the “senescence (frequency of senescent, SA-β-Gal-positive cannibal cells) after treatment with IR or with MTX” value (HCT116 cells) of the same molecule?
A: The value was “strongly reduced senescence”.
